pIC50: −log10 of the molar value.
Biological target: human NaV 1.7 (Homo sapiens, UniProt Q15858)
Experiment: E-VIPR optical membrane potential assay with electrical stimulation
Format: cell-based
Conditions: sodium channel inhibition; read-out: Binned Activity Data (IC50)
Description: Assays for Detecting and Measuring NaV Inhibition Properties of Compound E-VIPR Optical Membrane Potential Assay Method with Electrical Stimulation
Sodium channels are voltage-dependent proteins that can be activated by inducing membrane voltage changes by applying electric fields. The electrical stimulation instrument and methods of use are described in Ion Channel Assay Methods PCT/US01/21652, herein incorporated by reference and are referred to as E-VIPR. The instrument comprises a microtiter plate handler, an optical system for exciting the coumarin dye while simultaneously recording the coumarin and oxonol emissions, a waveform generator, a current- or voltage-controlled amplifier, and a device for inserting electrodes in well. Under integrated computer control, this instrument passes user-programmed electrical stimulus protocols to cells within the wells of the microtiter plate.
24 hours before the assay on E-VIPR, HEK cells expressing human NaV subtype, like NaV 1.7, are seeded in 384-well poly-lysine coated plates at 15,000-20,000 cells per well. Other subtypes are performed in an analogous mode in a cell line expressing the NaV of interest. HEK cells are grown in media (exact composition is specific to each cell type and NaV subtype) supplemented with 10% FBS (Fetal Bovine Serum, qualified; GibcoBRL #16140-071) and 1% Pen-Strep (Penicillin-Streptomycin; GibcoBRL #15140-122). Cells are grown in vented cap flasks, in 90% humidity and 10% CO2, to 100% confluence. They are usually split by trypsinization 1:10 or 1:20, depending on scheduling needs, and grown for 2-3 days before the next split.
Bath1 buffer. Glucose 10 mM (1.8 g/L), Magnesium Chloride (Anhydrous), 1 mM (0.095 g/L), Calcium Chloride, 2 mM (0.222 g/L), HEPES 10 mM (2.38 g/L), Potassium Chloride, 4.5 mM (0.335 g/L), Sodium Chloride 160 mM (9.35 g/L).
Hexyl Dye Solution: Bath1 Buffer+0.5% β-cyclodextrin (make this prior to use, Sigma #C4767), 8 μM CC2-DMPE+2.5 μM DiSBAC6(3). To make the solution Add volume of 10% Pluronic F127 stock equal to volumes of CC2-DMPE+DiSBAC6(3). The order of preparation is first mix Pluronic and CC2-DMPE, then add DiSBAC6(3) while vortexing, then add Bath1+β-Cyclodextrin.
1) Pre-spot compounds (in neat DMSO) into compound plates. Vehicle control (neat DMSO), the positive control (20 mM DMSO stock tetracaine, 125 μM final in assay) and test compounds are added to each well at 160× desired final concentration in neat DMSO. Final compound plate volume will be 80 μL (80-fold intermediate dilution from 1 μL DMSO spot; 160-fold final dilution after transfer to cell plate). Final DMSO concentration for all wells in assay is 0.625%.
2) Prepare Hexyl Dye Solution.
3) Prepare cell plates. On the day of the assay, medium is aspirated and cells are washed three times with 100 μL of Bath1 Solution, maintaining 25 μL residual volume in each well.
4) Dispense 25 μL per well of Hexyl Dye Solution into cell plates. Incubate for 20-35 minutes at room temp or ambient conditions.
5) Dispense 80 μL per well of Bath1 into compound plates. Acid Yellow-17 (1 mM) is added and Potassium Chloride can be altered from 4.5 to 20 mM depending on the NaV subtype and assay sensitivity.
6) Wash cell plates three times with 100 μL per well of Bath1, leaving 25 μL of residual volume. Then transfer 25 uL per well from Compound Plates to Cell Plates. Incubate for 20-35 minutes at room temp/ambient condition
7) Read Plate on E-VIPR. Use the current-controlled amplifier to deliver stimulation wave pulses for typically 9 seconds and a scan rate of 400 Hz. A pre-stimulus recording is performed for 0.5 seconds to obtain the un-stimulated intensities baseline. The stimulatory waveform is applied for 9 seconds followed by 0.5 seconds of post-stimulation recording to examine the relaxation to the resting state. […]

Sequence of human NaV 1.7 (Q15858 whole entry): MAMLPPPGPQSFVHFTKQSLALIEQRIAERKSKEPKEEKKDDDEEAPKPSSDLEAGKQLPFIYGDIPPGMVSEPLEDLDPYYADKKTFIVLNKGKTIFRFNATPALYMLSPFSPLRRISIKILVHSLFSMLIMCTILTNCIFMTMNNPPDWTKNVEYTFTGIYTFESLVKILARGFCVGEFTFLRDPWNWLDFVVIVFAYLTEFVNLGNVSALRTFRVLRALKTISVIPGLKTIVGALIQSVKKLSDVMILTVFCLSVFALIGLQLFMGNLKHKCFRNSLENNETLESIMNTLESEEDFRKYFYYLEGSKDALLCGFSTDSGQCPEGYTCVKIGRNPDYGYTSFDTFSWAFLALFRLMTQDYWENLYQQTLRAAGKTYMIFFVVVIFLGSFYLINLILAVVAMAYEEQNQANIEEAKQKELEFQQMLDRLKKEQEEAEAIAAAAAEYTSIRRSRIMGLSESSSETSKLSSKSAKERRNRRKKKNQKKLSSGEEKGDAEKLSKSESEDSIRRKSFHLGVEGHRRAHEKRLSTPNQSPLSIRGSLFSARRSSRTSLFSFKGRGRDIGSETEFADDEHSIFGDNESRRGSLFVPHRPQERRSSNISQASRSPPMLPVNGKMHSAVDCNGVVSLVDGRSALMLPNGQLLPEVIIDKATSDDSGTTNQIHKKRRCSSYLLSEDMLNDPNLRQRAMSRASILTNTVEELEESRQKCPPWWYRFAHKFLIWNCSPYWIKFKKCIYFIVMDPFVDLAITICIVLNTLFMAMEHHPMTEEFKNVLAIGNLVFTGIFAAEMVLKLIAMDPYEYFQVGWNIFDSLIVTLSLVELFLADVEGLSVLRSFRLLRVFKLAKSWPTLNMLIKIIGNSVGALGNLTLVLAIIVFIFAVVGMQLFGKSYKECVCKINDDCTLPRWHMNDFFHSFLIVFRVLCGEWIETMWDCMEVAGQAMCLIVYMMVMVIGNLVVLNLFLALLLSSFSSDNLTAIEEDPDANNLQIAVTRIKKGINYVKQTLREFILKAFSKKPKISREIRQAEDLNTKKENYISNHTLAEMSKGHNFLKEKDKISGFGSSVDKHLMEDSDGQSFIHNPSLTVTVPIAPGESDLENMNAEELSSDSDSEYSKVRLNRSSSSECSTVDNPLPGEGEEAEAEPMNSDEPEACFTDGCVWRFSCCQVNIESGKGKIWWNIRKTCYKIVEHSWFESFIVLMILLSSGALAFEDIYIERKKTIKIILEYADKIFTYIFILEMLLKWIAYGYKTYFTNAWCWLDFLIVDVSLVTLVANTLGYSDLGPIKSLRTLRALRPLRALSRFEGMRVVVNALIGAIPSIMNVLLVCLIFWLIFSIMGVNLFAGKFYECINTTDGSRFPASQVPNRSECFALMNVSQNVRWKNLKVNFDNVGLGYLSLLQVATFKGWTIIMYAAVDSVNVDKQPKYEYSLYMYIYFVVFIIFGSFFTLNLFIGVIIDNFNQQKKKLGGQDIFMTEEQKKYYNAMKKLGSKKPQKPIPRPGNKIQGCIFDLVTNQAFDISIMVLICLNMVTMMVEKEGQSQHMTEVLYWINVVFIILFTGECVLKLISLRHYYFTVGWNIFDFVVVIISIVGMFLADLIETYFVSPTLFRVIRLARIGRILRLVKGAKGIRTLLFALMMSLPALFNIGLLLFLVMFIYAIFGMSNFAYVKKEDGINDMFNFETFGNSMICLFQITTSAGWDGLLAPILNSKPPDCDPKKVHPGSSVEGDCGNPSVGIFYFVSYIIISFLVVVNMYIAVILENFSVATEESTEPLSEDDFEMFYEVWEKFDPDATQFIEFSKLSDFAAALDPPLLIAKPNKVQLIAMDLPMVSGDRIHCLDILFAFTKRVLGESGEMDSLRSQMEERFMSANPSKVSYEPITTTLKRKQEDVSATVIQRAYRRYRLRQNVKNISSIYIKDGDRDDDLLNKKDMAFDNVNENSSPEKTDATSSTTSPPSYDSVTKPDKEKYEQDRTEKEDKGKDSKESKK

| pIC50 | Structure (SMILES) |
| --- | --- |
| ≥ 5.70 | COc1cc(OC(F)(F)F)ccc1C(=O)N1CCC2(CC1)Oc1cc(Cl)ccc1-n1cccc12 [Compound 116] |
| ≥ 5.70 | CC(C)Oc1ccc(C(=O)N2CCC3(CC2)Oc2ccc(F)cc2-c2nn(C)cc23)cc1 [Compound 117] |
| 5.30 to 5.70 | CC(C)S(=O)(=O)c1ccc(C(=O)N2CCC3(CC2)Oc2ccccc2-n2ccnc23)cc1 [Compound 119] |
| ≥ 5.70 | COc1cc(OC(F)(F)F)ccc1C(=O)N1CCC2(CC1)Oc1ccccc1-c1c2cnn1C [Compound 121] |
| ≥ 5.70 | Cc1cc(C(=O)N2CCC3(CC2)Oc2ccccc2-n2c(C(F)(F)F)ccc23)ccc1S(C)(=O)=O [Compound 123] |
| ≥ 5.70 | N#Cc1ccc2n1-c1ccccc1OC21CCN(C(=O)c2cccc(F)c2OC(F)F)CC1 [Compound 125] |
| ≥ 5.70 | CC[C@H](C)Oc1ccc(C(=O)N2CCC3(CC2)Oc2ccccc2-n2cccc23)cc1C(F)(F)F [Compound 126] |
| < 5.30 | COc1cc(F)c(F)cc1C(=O)N1CCC2(CC1)Oc1ccccc1-c1c2cnn1C [Compound 127] |
| ≥ 5.70 | CCCOc1ccc(C(=O)N2CCC3(CC2)Oc2ccccc2-c2c3cnn2C)cc1 [Compound 128] |
| ≥ 5.70 | COc1ccc(C(=O)N2CCC3(CC2)Oc2cc(Cl)ccc2-n2cccc23)c(C(F)(F)F)c1 [Compound 129] |
| ≥ 5.70 | CCOc1ncccc1C(=O)N1CCC2(CC1)Oc1ccccc1-n1c(C(F)(F)F)ccc12 [Compound 130] |
| ≥ 5.70 | CC[C@@H](C)Oc1ccc(C(=O)N2CCC3(CC2)Oc2ccccc2-n2cccc23)cc1C(F)(F)F [Compound 131] |
| ≥ 5.70 | CC(C)Oc1ccc(C(=O)N2CCC3(CC2)Oc2ccccc2-c2c3cnn2C)cc1Cl [Compound 135] |
| < 5.30 | CCc1ccc(C(=O)N2CCC3(CC2)Oc2cc(CN)ccc2-n2cccc23)cc1OC [Compound 137] |
| ≥ 5.70 | Cn1ncc2c1-c1ccccc1OC21CCN(C(=O)c2cccnc2Oc2ccccc2)CC1 [Compound 138] |
| ≥ 5.70 | COCCOc1ccc(C(=O)N2CCC3(CC2)Oc2cc(Cl)ccc2-n2cccc23)cc1OC [Compound 139] |
| ≥ 5.70 | COc1cc(C(=O)N2CCC3(CC2)Oc2ccccc2-n2cccc23)ccc1OC[C@@H](O)CO [Compound 140] |
| ≥ 5.70 | Cc1cc(C(=O)N2CCC3(CC2)Oc2ccccc2-c2c3cnn2C)ccc1S(C)(=O)=O [Compound 141] |
| ≥ 5.70 | CC[C@H](C)Oc1ccc(C(=O)N2CCC3(CC2)Oc2cc(F)ccc2-n2cccc23)cc1OC [Compound 142] |
| 5.30 to 5.70 | COc1ccc(C(=O)N2CCC3(CC2)Oc2ccccc2-c2c3cnn2C)cc1C(F)(F)F [Compound 143] |

| pIC50 | Structure (SMILES) |
| --- | --- |
| ≥ 5.70 | CC[C@@H](C)Oc1ccc(C(=O)N2CCC3(CC2)Oc2ccccc2-n2cccc23)cc1C#N [Compound 145] |
| ≥ 5.70 | COc1cc(C(=O)N2CCC3(CC2)Oc2ccccc2-c2c3cnn2C)ccc1OC[C@H](C)OC [Compound 146] |
| ≥ 5.70 | Cn1cccc(C(=O)N2CCC3(CC2)Oc2cc(Cl)ccc2-n2cccc23)c1=O [Compound 147] |
| < 5.30 | CC(C)NC(=O)c1ccc(C(=O)N2CCC3(CC2)Oc2ccccc2-c2c3cnn2C)cc1 [Compound 150] |
| ≥ 5.70 | O=C(c1ccc(S(=O)(=O)[C@H]2CCOC2)cc1)N1CCC2(CC1)Oc1ccccc1-n1c(C(F)(F)F)ccc12 [Compound 151] |
| ≥ 5.70 | Cc1cc(C(=O)N2CCC3(CC2)Oc2ccccc2-n2ccnc23)ccc1OC(C)C [Compound 153] |
| ≥ 5.70 | CCn1ncc2c1-c1ccccc1OC21CCN(C(=O)c2cccc(F)c2OC)CC1 [Compound 154] |
| ≥ 5.70 | Cn1ncc2c1-c1ccccc1OC21CCN(C(=O)c2ccnc(N3CCCCC3)c2)CC1 [Compound 155] |
| ≥ 5.70 | COc1cc(C(=O)N2CCC3(CC2)Oc2ccccc2-n2c(C#N)ccc23)ccc1OC(C)C [Compound 156] |
| ≥ 5.70 | Cc1cc(OC(C)C)ccc1C(=O)N1CCC2(CC1)Oc1ccccc1-c1c2cnn1C [Compound 158] |
| ≥ 5.70 | Cc1ccc(C(=O)N2CCC3(CC2)Oc2ccccc2-n2cccc23)cc1C [Compound 159] |
| < 5.30 | Cn1ncc2c1-c1ccccc1OC21CCN(C(=O)c2cccc3c2CCO3)CC1 [Compound 160] |
| ≥ 5.70 | COc1ccc(C(=O)N2CCC3(CC2)Oc2ccccc2-n2cc(C)cc23)cc1C(F)(F)F [Compound 161] |
| ≥ 5.70 | COc1ccc(C(=O)N2CCC3(CC2)Oc2ccccc2-n2c(C(F)(F)F)ccc23)c(OC)c1OC [Compound 164] |
| ≥ 5.70 | COc1cc(C(=O)N2CCC3(CC2)Oc2cccnc2-n2cccc23)ccc1OCCC(C)C [Compound 165] |
| ≥ 5.70 | COC(C)(C)c1ccc(C(=O)N2CCC3(CC2)Oc2cc(F)ccc2-n2cccc23)cc1C [Compound 166] |
| ≥ 5.70 | CCn1ncc2c1-c1ccccc1OC21CCN(C(=O)c2ccccc2OC(F)F)CC1 [Compound 167] |
| ≥ 5.70 | COc1cc(C(=O)N2CCC3(CC2)Oc2cc(F)ccc2-n2cccc23)ccc1C(C)(C)O [Compound 168] |
| 5.30 to 5.70 | COc1cc(C(=O)N2CCC3(CC2)Oc2ccccc2-c2c3cnn2C)ccc1OC(F)F [Compound 169] |
| ≥ 5.70 | O=C(c1ccc(O[C@@H]2CCOC2)c(C(F)(F)F)c1)N1CCC2(CC1)Oc1ccccc1-n1cccc12 [Compound 170] |

| pIC50 | Structure (SMILES) |
| --- | --- |
| ≥ 5.70 | CC(=O)c1ccc2n1-c1ccccc1OC21CCN(C(=O)c2ccc(OC(C)C)c(C)c2)CC1 [Compound 171] |
| ≥ 5.70 | COC[C@H](C)Oc1ccc(C(=O)N2CCC3(CC2)Oc2cc(Cl)ccc2-n2cccc23)cc1OC [Compound 172] |
| ≥ 5.70 | Cn1cc2c(n1)-c1ccccc1OC21CCN(C(=O)c2ccc3ncsc3c2)CC1 [Compound 173] |
| ≥ 5.70 | CC(C)CCOc1ccc(C(=O)N2CCC3(CC2)Oc2ccccc2-c2c3cnn2C)cc1 [Compound 174] |
| ≥ 5.70 | Cn1cc2c(n1)-c1cc(F)ccc1OC21CCN(C(=O)c2ccccc2OC(F)(F)F)CC1 [Compound 175] |
| ≥ 5.70 | COc1cc(C(=O)N2CCC3(CC2)Oc2ccccc2-n2c(C(F)(F)F)ccc23)ccc1OCC(N)=O [Compound 176] |
| ≥ 5.70 | CC(C)Oc1ccc(C(=O)N2CCC3(CC2)Oc2ccc(F)cc2-c2nn(C)cc23)cc1CO [Compound 180] |
| ≥ 5.70 | COc1ccc(C(=O)N2CCC3(CC2)Oc2ccccc2-n2ccc(C)c23)cc1C(F)(F)F [Compound 181] |
| 5.30 to 5.70 | Cn1ncc2c1-c1ccccc1OC21CCN(C(=O)c2ccc3c(c2)CC(C)(C)O3)CC1 [Compound 182] |
| ≥ 5.70 | CC(C)Oc1ccc(C(=O)N2CCC3(CC2)Oc2ccccc2-c2c3cnn2C)c2ncccc12 [Compound 183] |
| ≥ 5.70 | O=C(c1ccc(OCCO)cc1)N1CCC2(CC1)Oc1ccccc1-n1cccc12 [Compound 184] |
| ≥ 5.70 | Cn1ncc2c1-c1ccccc1OC21CCN(C(=O)c2cccc3[nH]ccc23)CC1 [Compound 186] |
| ≥ 5.70 | COc1ccc(C(=O)N2CCC3(CC2)Oc2ccccc2-c2c3cnn2C)c(OC)c1 [Compound 187] |
| ≥ 5.70 | Cc1cc(OC(C)C)ccc1C(=O)N1CCC2(CC1)Oc1ccccc1-c1nn(C)cc12 [Compound 188] |
| ≥ 5.70 | COc1ccc(OC)c(C(=O)N2CCC3(CC2)Oc2cc(Cl)ccc2-n2cccc23)c1 [Compound 189] |
| ≥ 5.70 | CCCOc1ccc(C(=O)N2CCC3(CC2)Oc2ccccc2-c2c3cnn2C)cc1OC [Compound 190] |
| ≥ 5.70 | COc1cc(C(=O)N2CCC3(CC2)Oc2ccccc2-n2cccc23)ccc1OCCOC(F)(F)F [Compound 191] |
| ≥ 5.70 | COC(C)(C)c1ccc(C(=O)N2CCC3(CC2)Oc2cc(Cl)ccc2-n2cccc23)cc1C [Compound 193] |

Reference: patent US9365588B2, “Benzoxazines as modulators of ion channels” (Vertex Pharmaceuticals Incorporated, priority 2011, dated 2016)
